Assay results published in ChEMBL document CHEMBL1142270, “Synthesis, thermal stability, antimalarial activity of symmetrically and asymmetrically substituted tetraoxanes” (Bioorg Med Chem Lett, 2008).
Activity calls are given as the source filed them. The rule behind the calls is not given here.

Key:
Plasmodium falciparum [1] = assay: Antimalarial activity against Plasmodium falciparum W2 in parasite LDH assay; format: functional, organism-based
[2] = Selectivity index, ratio of IC50 for African green monkey (Cercopithecus aethiops) Vero cells to IC50 for Plasmodium falciparum D6; format: functional
[3] = Selectivity index, ratio of IC50 for african green monkey (Cercopithecus aethiops) Vero cells to IC50 for Plasmodium falciparum W2; format: functional
Plasmodium falciparum [4] = assay: Antimalarial activity against Plasmodium falciparum D6 in parasite LDH assay; format: functional, organism-based
Vero = assay: Cytotoxicity against african green monkey Vero cells by neutral red assay upto 16.72 uM; format: cell-based; conditions: chlorocebus sabaeus
Plasmodium falciparum [5] = assay: Antimalarial activity against Plasmodium falciparum D6 in parasite LDH assay to 16.72 uM; format: functional, organism-based
Plasmodium falciparum [6] = assay: Antimalarial activity against Plasmodium falciparum W2 in parasite LDH assay to 16.72 uM; format: functional, organism-based

Row | Compound | IC50 (Plasmodium falciparum [1]) [nM] | Ratio IC50 [2] | Ratio IC50 [3] | IC50 (Plasmodium falciparum [4]) [nM] | Activity (Vero) | Activity (Plasmodium falciparum [5]) | Activity (Plasmodium falciparum [6])
1 | Fc1ccc(C2OOC(c3ccc(F)cc3)OO2)cc1 (stereo not given) | 1140 | >10.4 | >14.9 | 1640 | Non-toxic | – | –
2 | Brc1ccc(C2OOC3(CCCC3)OO2)cc1 | – | – | – | – | – | inactive | inactive
3 | Brc1ccc(C2OOC3(CCCCCC3)OO2)cc1 | – | – | – | – | – | inactive | inactive
4 | CCN(CC)CCCC(C)Nc1ccnc2cc(Cl)ccc12 (stereo not given) [CHLOROQUINE] | – | – | – | – | Non-toxic | – | –
5 | Clc1ccc(C2OOC3(CCCCCC3)OO2)cc1 | 16700 | >1 | >1 | 16700 | Non-toxic | – | –
6 | Clc1ccc(C2OOC3(CCCC3)OO2)cc1 | 16700 | >1 | >1 | 16700 | Non-toxic | – | –
7 | FC(F)(F)c1cccc(C2OOC(c3cccc(C(F)(F)F)c3)OO2)c1 (stereo not given) | – | – | – | – | – | inactive | inactive
8 | Clc1cccc(C2OOC3(CCCCC3)OO2)c1 | 2470 | >8.2 | >7.1 | 2140 | Non-toxic | – | –
9 | Cc1ccc(C2OOC(c3ccc(C)cc3)OO2)cc1 (stereo not given) | 1180 | >11.9 | >14.9 | 1470 | Non-toxic | – | –
10 | Clc1ccc(C2OOC(c3ccc(Cl)cc3)OO2)cc1 (stereo not given) | 3190 | >3.4 | >4.8 | 4470 | Non-toxic | – | –
11 | C[C@@H]1CC[C@H]2[C@@H](C)C(=O)O[C@@H]3O[C@@]4(C)CC[C@@H]1[C@]32OO4 [ARTEMISININ] | 15 | >476 | >1400 | 35 | Non-toxic | – | –
12 | Clc1ccc(C2OOC3(CCCCC3)OO2)cc1 | 2590 | >6.6 | >6.8 | 2660 | Non-toxic | – | –
13 | Clc1ccccc1C1OOC(c2ccccc2Cl)OO1 (stereo not given) | – | – | – | – | – | inactive | inactive
14 | Clc1cccc(C2OOC(c3cccc(Cl)c3)OO2)c1 (stereo not given) | 700 | >11.1 | >21.6 | 1370 | Non-toxic | – | –
15 | c1ccc(C2OOC3(CCCCC3)OO2)cc1 | 1820 | >9.2 | >11.1 | 2200 | Non-toxic | – | –
16 | Cc1cccc(C2OOC(c3cccc(C)c3)OO2)c1 (stereo not given) | 770 | >18.2 | >22.7 | 960 | Non-toxic | – | –
17 | Brc1cccc(C2OOC(c3cccc(Br)c3)OO2)c1 (stereo not given) | – | – | – | – | – | inactive | inactive
18 | Brc1ccc(C2OOC(c3ccc(Br)cc3)OO2)cc1 (stereo not given) | 670 | >8.5 | >13.6 | 1390 | Non-toxic | – | –
19 | Cc1ccccc1C1OOC(c2ccccc2C)OO1 (stereo not given) | 1290 | >7.1 | >13.6 | 2460 | Non-toxic | – | –
20 | Clc1ccccc1C1OOC2(CCCCC2)OO1 | 9240 | >1.3 | >1.9 | 14000 | Non-toxic | – | –
21 | c1ccc(C2OOC3(CCCCCC3)OO2)cc1 | 7590 | >1.9 | >2.5 | 9990 | Non-toxic | – | –
22 | Brc1ccccc1C1OOC(c2ccccc2Br)OO1 (stereo not given) | – | – | – | – | – | inactive | inactive
23 | Brc1ccc(C2OOC3(CCCCC3)OO2)cc1 | 5390 | >4 | >2.8 | 3810 | Non-toxic | – | –
24 | FC(F)(F)c1ccc(C2OOC(c3ccc(C(F)(F)F)cc3)OO2)cc1 (stereo not given) | – | – | – | – | – | inactive | inactive
